According to US20100196915A1, “Method of Detecting Oncogenesis of Hematopoietic Cells” (UNIVERSITY OF SOUTH FLORIDA, priority 2007, published 2010):

B1: IL-27: recombinant human IL-27 (R&D Systems), cytokine used to stimulate cells (protein, UniProt Q8NEV9 29-243; Q14213 21-229, looked up)
Interleukin-27 subunit alpha: FPRPPGRPQLSLQELRREFTVSLHLARKLLSEVRGQAHRFAESHLPGVNLYLLPLGEQLPDVSLTFQAWRRLSDPERLCFISTTLQPFHALLGGLGTQGRWTNMERMQLWAMRLDLRDLQRHLRFQVLAAGFNLPEEEEEEEEEEEEERKGLLPGALGSALQGPAQVSWPQLLSTYRLLHSLELVLSRAVRELLLLSKAGHSVWPLGFPTLSPQP
Interleukin-27 subunit beta: RKGPPAALTLPRVQCRASRYPIAVDCSWTLPPAPNSTSPVSFIATYRLGMAARGHSWPCLQQTPTSTSCTITDVQLFSMAPYVLNVTAVHPWGSSSSFVPFITEHIIKPDPPEGVRLSPLAERQLQVQWEPPGSWPFPEIFSLKYWIRYKRQGAARFHRVGPIEATSFILRAVRPRARYYVQVAAQDLTDYGELSDWSLPATATMSLGK

Experiments:
Type in all cases: cell-based
[1] = system: 32D cells transformed with IL-27R; assay: Cell cycle profile by flow cytometry of PI-stained cells; conditions: after 24 hr of treatment, FIG. 3(B)
Experimental: (§1) 32D cells were washed twice with RPMI containing 0.1% BSA and incubated in the same medium with either 0.1% DMSO, 0.5 μM or 2 μM JAK inhibitor I (EMD Biosciences/Calbiochem) for 3 hours before lysis. For cell growth and viability, cells were plated at a concentration of 2×10^5/ml in RPMI/10% FBS and either 0.1% DMSO or 0.5 μM JAK inhibitor I. Cell growth and viability were determined by trypan blue exclusion. After 24 hr of JAK inhibitor I treatment, the percentage of apoptotic cells and cell cycle profiles were determined by flow cytometry. See supporting information.
(§2) Flow Cytometry: Apoptosis and Cell Cycle Analysis. The percentage of apoptotic cells after 24 h JAK inhibitor I treatment was determined by flow cytometric analysis of annexin V-fluorescein (BD Biosciences) binding. […] Four-hundred microliters of 1× binding buffer was added to the samples and the cells were analyzed by flow cytometry. Flow cytometric analysis was performed on a FACS Scan instrument with CellQuest software (BD Biosciences) and data obtained were analyzed with FlowJo software (Tree Star). Cell cycle profiles after 24 h JAK inhibitor I treatment were determined by flow cytometric analysis of PI-stained cells. […] Stained cells were then analyzed by flow cytometry using a FACS Scan with CellQuest software and analyzed with FlowJo software (Tree Star). […]

[2] = system: 32D cells transformed with IL-27R; assay: Cell growth and viability by trypan blue exclusion, JAK inhibitor I studies
Experimental: as §1
The role of JAK family kinases in transformation by IL-27R was addressed by culturing 32D/IL-27R transformed cells with the pan-JAK inhibitor, JAK inhibitor I (Thompson, J. E., et al., Photochemical preparation of a pyridone containing tetracycle: a Jak protein kinase inhibitor. Bioorg. Med. Chem. Lett., 2002 Apr. 22; 12(8):1219-23). Cells transformed with IL-27R were cultured in the presence of 0.1% DMSO or 0.5 μM JAK inhibitor I on day 0. […] Cell viability, determined using trypan blue, also decreases in the presence of the inhibitor, seen in FIG. 4(A). […] Transformed 32D cells were cultured in the presence of 0.1% DMSO (lane 2), 0.5 μM (lane 3) or 2 μM (lane 4) JAK inhibitor I. Control 32D cells starved of serum/IL-3 in the presence of 0.1% DMSO for three hr is shown in lane 1. […]

JAK family kinases = assay: Immunoblot of STAT1, STAT3, STAT5 and ERK1/2 phosphorylation induced by IL-27R; conditions: 0.5 μM or 2 μM, 3 hours, FIG. 5
Experimental: Cells were washed in PBS and lysed in lysis buffer (25 mM Tris pH7.4, 150 mM NaCl, 25 mM NaF, 1% Triton-X100, 1 mM sodium vanadate, 2 mM sodium pyrophosphate, 10 μg/ml leupeptin, 2 μg/ml aprotinin, and 1 mM PMSF). Protein concentrations were determined by BCA protein assay kit (Pierce Biotechnology), and equal amounts of protein were analyzed by SDS-PAGE. Primary antibodies used in this study include: IL-27R (TCCR) (C-term) (Sigma), phospho-(P-) STAT1(Y701), P-STAT3(Y705), P-JAK1(Y1022/1023), P-JAK2(Y1007/1008), P-ERK(T202/Y204), JAK1, JAK2 (Cell Signaling Technology), P-STAT5(Y694) (BD Transduction Laboratories), STAT1, STAT3, STAT5, and ERK1 (Santa Cruz Biotechnology). Immunoblots were developed using ECL Western Blotting Substrate (Pierce Biotechnology).
as §1, with “information. […]” for “information.”

[3] = system: 32D cells transformed with IL-27R; assay: Apoptosis by annexin V binding, flow cytometry; conditions: after 24 hr of treatment, FIG. 4(B)
Experimental: as §1, §2

[4] = system: IL-27R-expressing BaF3 cells; assay: IL-27 stimulation, P-STAT1 immunoblot; conditions: 100 ng/ml IL-27, 10 min, cells lack gp130
Experimental: (§3) To stimulate cell cultures with IL-27, 32D and BaF3 cells expressing IL-27R were washed of growth factors and incubated in RPMI medium 1640 containing 0.1% BSA for 3 h. Cells were left untreated or stimulated with 100 ng/ml recombinant human IL-27 (R&D Systems) for 10 min. 293T cells were transfected with IL-27R, JAK2-V617F, and gp130 siRNA as indicated and as described. Two days later, cells were stimulated with 100 ng/ml human IL-27 for the length of time indicated and washed with ice-cold PBS, and cell lysates were prepared and analyzed by immunoblotting as described.
(§4) Finally, while IL-27R-mediated transformation is gp130-independent, these observations still support the paradigm that IL-27-mediated signaling requires gp130 (Pflanz, S., et al., J. Immunol., 2004 Feb. 15; 172(4):2225-31). […] Cells were left untreated or stimulated with 100 ng/ml IL-27 for 10 min and cell lysates analyzed by immunoblotting for phosphorylated (P-) and total STAT1. IL-27-induced signaling (as measured by STAT1 phosphorylation) is not observed in IL-27R-expressing 32D or BaF3 cells, which lack gp130, but is seen in IL-27R-expressing 293T cells, which express gp130, data not shown. […] Two days later, cells were stimulated with 100 ng/ml IL-27 for the length of time indicated, and cell lysates were prepared and analyzed by immunoblotting for P-STAT1, total STAT1, and gp130. […]

[5] = system: IL-27R-expressing 32D cells; assay: IL-27 stimulation, P-STAT1 immunoblot; conditions: 100 ng/ml IL-27, 10 min, cells lack gp130
Experimental: as §3, §4

[6] = system: IL-27R-expressing 293T cells; assay: IL-27 stimulation and gp130 siRNA depletion, P-STAT1 immunoblot
Experimental: as §3, §4

Molecule	cell cycle arrest [1]	number of cells in S-phase [1]	cell growth ([2]; 0.5 μM JAK inhibitor I vs 0.1% DMSO, from day 0, FIG. 3(A))	cell viability ([2]; 0.5 μM JAK inhibitor I, trypan blue, FIG. 4(A))	ERK1/2 activation (JAK family kinases)	STAT1, -3 and -5 phosphorylation induced by IL-27R (JAK family kinases)	apoptosis (annexin V binding) [3]	IL-27-induced signaling (STAT1 phosphorylation) [4]	IL-27-induced signaling (STAT1 phosphorylation) [5]	IL-27R/JAK2-V617F-mediated activation of STAT1 ([6]; 100 ng/ml IL-27, 293T cells transfected with IL-27R and JAK2-V617F)	IL-27-induced signaling (STAT1 phosphorylation) ([6]; 100 ng/ml IL-27, cells express gp130)
JAK inhibitor I	induces a G1 as well as a G2 cell cycle arrest	dramatic decrease	the growth of these cells ceases	decreases	prevents	blocks	induction of apoptosis	–	–	–	–
B1	–	–	–	–	–	–	–	not observed	not observed	not enhanced	is seen
